Experiment [1] relates to L1210. Put plainly: Effect of compound on the level of putrescine in polyamine pools of L1210 cells after 48 hr of treatment with 20 uM of dose. Type of experiment: functional, Mus musculus.
A short description of experiment [2]: Number of CD-1 mice died after administration of 200 mg/kg dose of compound; 5/5. Type of experiment: functional, Mus musculus.
Experiment [3] can be described thus: Number of CD-1 mice died in a 5-day course after administration of 100 mg/kg dose of compound; 0/5. Type of experiment: functional, Mus musculus.
The subject of experiment [4] is L1210. Description: Effect of compound on the level of putrescine in polyamine pools of L1210 cells after 48 hr of treatment with 100 uM of dose. The format is functional, Mus musculus.
The test system of experiment [5] is L1210. Put plainly: Inhibitory concentration of compound against the growth of the L1210 cell line at 48 hr. The format is functional, cell-based. Particulars: Mus musculus, L1210, 48 h.
The subject of experiment [6] is L1210. Put plainly: Percent of S-adenosyl-methionine decarboxylase enzyme activity in L1210 cells after 6 hr of treatment with 1 uM of dose. The format is cell-based.
For experiment [7], the system named is L1210. Put plainly: Inhibition of transport of [3H]spermidine in L1210 cells. The format is functional, cell-based, Mus musculus.
The subject of experiment [8] is L1210. Put plainly: Amount of compound present per 10e6 L1210 cells after 48 hr of treatment with 20 uM of dose. Type of experiment: functional, cell-based. Particulars: Mus musculus.
The test system of experiment [9] is L1210. Put plainly: Effect of compound on the level of spermidine in polyamine pools of L1210 cells after 48 hr of treatment with 100 uM of dose. Type of experiment: functional, Mus musculus.
A short description of experiment [10]: Number of CD-1 mice died in a 5-day course after administration of 25 mg/kg dose of compound; 0/7. Type of experiment: functional, Mus musculus.
The target of experiment [11] is T1, Ornithine decarboxylase (Mus musculus) (UniProt P00860).
T1 sequence (whole entry): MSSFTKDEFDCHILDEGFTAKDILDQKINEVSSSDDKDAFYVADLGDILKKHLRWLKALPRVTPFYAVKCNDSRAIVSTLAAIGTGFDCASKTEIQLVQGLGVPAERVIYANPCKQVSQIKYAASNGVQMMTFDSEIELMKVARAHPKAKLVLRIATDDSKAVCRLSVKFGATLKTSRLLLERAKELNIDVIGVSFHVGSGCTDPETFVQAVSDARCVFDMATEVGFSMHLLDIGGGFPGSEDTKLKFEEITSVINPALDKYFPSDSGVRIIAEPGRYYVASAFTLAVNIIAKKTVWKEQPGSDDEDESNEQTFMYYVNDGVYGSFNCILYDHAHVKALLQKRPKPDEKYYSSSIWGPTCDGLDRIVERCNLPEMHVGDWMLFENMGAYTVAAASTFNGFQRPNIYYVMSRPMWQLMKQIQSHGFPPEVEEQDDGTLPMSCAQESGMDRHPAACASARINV
Put plainly: Percent of ornithine decarboxylase enzyme activity in L1210 cells after 4 hr of treatment with 1 uM of dose. Type of experiment: cell-based.

Experiment [12] deals with L1210. Put plainly: Effect of compound on the level of spermine in polyamine pools of L1210 cells after 48 hr of treatment with 100 uM of dose. The format is functional, Mus musculus.
Experiment [13] concerns L1210. Put plainly: Effect of compound on the level of spermine in polyamine pools of L1210 cells after 48 hr of treatment with 20 uM of dose. Type of experiment: functional, Mus musculus.
The test system of experiment [14] is L1210. Description: Inhibitory concentration of compound against the growth of the L1210 cell line at 96 hr. The format is functional, cell-based. Particulars: Mus musculus, L1210, 96 h.
Experiment [15] relates to L1210. Put plainly: Effect of compound on the level of spermidine in polyamine pools of L1210 cells after 48 hr of treatment with 20 uM of dose. Type of experiment: functional, Mus musculus.
The nature of experiment [16]: Number of CD-1 mice died in a 5-day course after administration of 75 mg/kg dose of compound; 0/5. Type of experiment: functional, Mus musculus.
A short description of experiment [17]: Number of CD-1 mice died after administration of 100 mg/kg dose of compound; 1/5. Type of experiment: functional, Mus musculus.
Experiment [18] is described as follows: Number of CD-1 mice died in a 5-day course after administration of 50 mg/kg dose of compound; 0/7. Type of experiment: functional, Mus musculus.
The target in experiment [19] is T2, Spermidine/spermine N(1)-acetyltransferase (SAT) (Mus musculus) (UniProt Q6P8J2+P48026). Put plainly: Percent of Spermidine/spermine-N1- acetyltransferase enzyme activity in L1210 cells after 48 hr of treatment with 10 uM of dose. Type of experiment: cell-based.
T2 sequence (P48026 whole entry, looked up): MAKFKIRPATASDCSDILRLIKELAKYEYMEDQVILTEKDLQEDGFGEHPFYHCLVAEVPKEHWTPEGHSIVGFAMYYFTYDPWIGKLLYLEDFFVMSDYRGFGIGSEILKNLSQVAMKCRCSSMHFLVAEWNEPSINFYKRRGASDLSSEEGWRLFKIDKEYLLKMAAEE
T2 sequence (Q6P8J2 whole entry, looked up): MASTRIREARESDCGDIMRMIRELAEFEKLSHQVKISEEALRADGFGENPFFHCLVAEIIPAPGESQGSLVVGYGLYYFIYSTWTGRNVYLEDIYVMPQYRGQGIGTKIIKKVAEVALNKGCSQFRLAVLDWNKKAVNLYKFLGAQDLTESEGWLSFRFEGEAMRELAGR
The subject of experiment [20] is L1210. Put plainly: Amount of compound present per 10e6 L1210 cells after 48 hr of treatment with 100 uM of dose. The format is functional, cell-based. Particulars: Mus musculus.
The nature of experiment [21]: Number of CD-1 mice died in a 5-day course after administration of 10 mg/kg dose of compound; 0/7. Type of experiment: functional, Mus musculus.
Experiment [22] deals with L1210. Description: Effect of compound on the level of putrescine in polyamine pools of L1210 cells after 48 hr of treatment with 10 uM of dose. The format is functional, Mus musculus.
In experiment [23] the test system is L1210. Put plainly: Effect of compound on the level of spermine in polyamine pools of L1210 cells after 48 hr of treatment with 10 uM of dose. The format is functional, Mus musculus.
Experiment [24] deals with L1210. Description: Amount of compound present per 10e6 L1210 cells after 48 hr of treatment with 10 uM of dose. The format is functional, cell-based. The note with it: Mus musculus.
The nature of experiment [25]: Number of CD-1 mice died in a 6-day course after administration of 200 mg/kg dose of compound; 10/12. Type of experiment: functional, Mus musculus.
Experiment [26] in a line: Number of CD-1 mice died after administration of 325 mg/kg dose of compound; 5/10. The format is functional, Mus musculus.
The test system of experiment [27] is L1210. Description: Effect of compound on the level of spermidine in polyamine pools of L1210 cells after 48 hr of treatment with 10 uM of dose. The format is functional, Mus musculus.
Experiment [28] has as its system L1210. Description: Effect of compound on the level of spermine in polyamine pools of L1210 cells after 48 hr of treatment with 20 uM compound dose. The format is functional, Mus musculus.
Experiment [29] in a line: Number of CD-1 mice died after administration of 100 mg/kg dose of compound; 0/5. The format is functional, Mus musculus.
Experiment [30] in a line: Number of CD-1 mice died after administration of 200 mg/kg dose of compound; 0/5. Type of experiment: functional, Mus musculus.
In experiment [31] the test system is L1210. Description: Amount of compound present per 10e6 L1210 cells after 48 hr of treatment with 4 uM of it. Type of experiment: functional, cell-based. Particulars: Mus musculus.
For experiment [32], the target named is T2, Spermidine/spermine N(1)-acetyltransferase (SAT) (Mus musculus). Description: Percent of Spermidine/spermine-N1- acetyltransferase enzyme activity in L1210 cells after 48 hr of treatment with 10 uM dose of compound. Type of experiment: cell-based.
In experiment [33] the target is T1, Ornithine decarboxylase (Mus musculus). Put plainly: Percent of ornithine decarboxylase enzyme activity in L1210 cells after 4 hr of treatment with 1 uM dose of compound. The format is cell-based.
Experiment [34] can be described thus: Number of CD-1 mice died in a 5-day course after administration of 200 mg/kg dose of compound; 0/5. The format is functional, Mus musculus.
The subject of experiment [35] is L1210. Put plainly: Effect of compound on the level of spermine in polyamine pools of L1210 cells after 48 hr of treatment with 4 uM compound dose. The format is functional, Mus musculus.
Experiment [36] has as its system L1210. Description: Effect of compound on the level of putrescine in polyamine pools of L1210 cells after 48 hr of treatment with 20 uM compound dose. Type of experiment: functional, Mus musculus.
Experiment [37] in a line: Number of CD-1 mice died after administration of 400 mg/kg dose of compound; 0/5. The format is functional, Mus musculus.
Experiment [38] can be described thus: Number of CD-1 mice died in a 5-day course after administration of 300 mg/kg dose of compound; 0/5. Type of experiment: functional, Mus musculus.
In experiment [39] the test system is L1210. Put plainly: Amount of compound present per 10e6 L1210 cells after 48 hr of treatment with 20 uM of it. The format is functional, cell-based. Particulars: Mus musculus.
Experiment [40] deals with L1210. Description: Effect of compound on the level of spermidine in polyamine pools of L1210 cells after 48 hr of treatment with 4 uM compound dose. Type of experiment: functional, Mus musculus.
Experiment [41] deals with L1210. Description: Effect of compound on the level of putrescine in polyamine pools of L1210 cells after 48 hr of treatment with 4 uM compound dose. Type of experiment: functional, Mus musculus.
Experiment [42] concerns L1210. Put plainly: Percent of S-adenosyl-methionine decarboxylase enzyme activity in L1210 cells after 6 hr of treatment with 1 uM dose of compound. The format is cell-based.
In experiment [43] the test system is L1210. Put plainly: Inhibition of transport of [3H]-spermidine by L1210 cells. Type of experiment: functional, cell-based, Mus musculus.
In experiment [44] the test system is L1210. Put plainly: Effect of compound on the level of spermidine in polyamine pools of L1210 cells after 48 hr of treatment with 20 uM compound dose. Type of experiment: functional, Mus musculus.

As a reminder, the IC50 is the concentration needed to halve the response being measured. Low readings indicate greater potency in that assay, high ones weaker potency in that assay. By Ki is commonly meant the equilibrium dissociation constant of an inhibitor or competing ligand from its target. A higher Ki goes with lower affinity. For the molecule `CCNCCCNCCCNCCCNCC1CC1`, the Control came to 22% in the experiment on L1210 [1]; 13% with L1210 [4]; 48% in the experiment with L1210 [6]; 16% with L1210 [9]; 26% in experiment [11]; 56% in the experiment with L1210 [12]. Moreover, the Control in the experiment on L1210 [13] was found to be 66%; in the experiment on L1210 [15], 25%; in [19], 3260%. The “No. of deaths/mice injected” value in [2] is 5; in [3] it was 0; in experiment [10], 0; in experiment [16] it was 0; in experiment [17], 1; in experiment [18], 0. In experiment [21], the “No. of deaths/mice injected” value is 0. Further, the values for the IC50 in the experiment on L1210 [5] and in the experiment on L1210 [14] were 16 µM and 550 nM, respectively. Also, in the experiment on L1210 [7], the affinity corresponds to a Ki of 13 µM. In addition, the Concentration in the experiment on L1210 [8] came to 2.17 nM; in the experiment on L1210 [20], 2.59 nM.

In the case of `CCNC[C@@H](O)CNCCCNC[C@H](O)CNCC`, in [11], the Control was 35%.

`CCNC[C@H](O)CNCCCNC[C@@H](O)CNCC` displayed a Control in [11] of 61%.

In the case of `CCNCCCNCCCNCCCNCC` [BIS(ETHYL)NORSPERMINE], the Control in the experiment on L1210 [4] was 0%; with L1210 [6], 42%; in the experiment on L1210 [22], 30%; in the experiment with L1210 [23], 31%; in the experiment with L1210 [27] it was 14%; with L1210 [9], 6%. For the same molecule, the figures for the Control (in [11]; with L1210 [12]; in [19]) were 7%, 30% and 3880%, respectively. This molecule also yielded a Ki with L1210 [7] of 7 µM. In addition, the results for the Concentration with L1210 [24] and in the experiment with L1210 [20] were 1.59 nM and 2.44 nM, respectively. Also, the “No. of deaths/mice injected” value came to 10 in experiment [25] and 5 in [26].

Take `CCNC[C@H](O)CNCCCNC[C@@H](O)CNCC1CC1`: the Control was 123% in the experiment with L1210 [28]; 2500% in experiment [32]; 37% in experiment [33]; 119% in the experiment with L1210 [35]; 20% with L1210 [36]; 48% with L1210 [40]. Also, the Control in the experiment on L1210 [41] came to 43%; with L1210 [42], 59%; in the experiment on L1210 [44], 32%. Besides, the “No. of deaths/mice injected” value in experiment [29], in experiment [3], in experiment [30], in experiment [34], in experiment [37] and in [38] was 0 each time. Further, the IC50 with L1210 [5] was found to be 4.5 µM; with L1210 [14], 970 nM. For the same molecule, the Amount (nmol/10^6 cells) stood at 1.94 with L1210 [31] and 3.05 with L1210 [39]. The molecule also registered a Ki in the experiment on L1210 [43] of 40 µM.
